The assay has as its system Huh7 psiCHECK-miR122 Renilla luciferase reporter, 48 h. The assay is described as follows: miR-122 inhibitors in Huh7 reporter cells, dose response, cell-based, Huh7 psiCHECK-miR122, Renilla luciferase, cherry-pick (AID 652053).
As for `C[C@@H]1CN([C@@H](C)CO)C(=O)Cc2cc(N(C)C)ccc2O[C@H]1CN(C)Cc1ccc(C(=O)Nc2ccccc2N)cc1`, the AC40 is 10.1 µM.

Regarding `O=S(=O)(NC1CC2CCC1C2)c1ccc2c(c1)OCCO2` (configuration not stated), the AC40 was 3.87 µM.

With `Cc1ccc(NC(=O)C(OC(=O)c2ccc(F)cc2)c2ccccc2)cc1Cl` (configuration not stated), the AC40 is 2.85 µM.

Turning to `CCCCOCCCNC(=S)Nc1ccc(S(=O)(=O)N2CCOCC2)cc1`, the AC40 was 11 µM.

For `CNC(=S)Nc1ccc(N2CCCC2)c(S(=O)(=O)Nc2ccc(OC)cc2)c1`, the AC40 is 1.31 µM.

In the case of `Cc1ccccc1NS(=O)(=O)c1cc(C(=O)N2CCc3ccccc3C2)ccc1C`, the AC40 was 20.4 µM.

Regarding `COc1ccc(S(=O)(=O)N2CC[C@@H]3[C@@H](CO)N(C)c4ccc(-c5ccc(F)cc5)cc4[C@@H]32)cc1`, the AC40 is 6.93 µM.

With `CN1C(=O)c2cc(NC(=O)Cc3ccccc3)ccc2OC[C@@H]2O[C@H](CC(=O)NCC3CC3)CC[C@@H]21`, the AC40 is 0.512 µM.

In the case of `COc1ccc(C2CCCCCN2Cc2nc3ccccc3c(=O)n2CC(N)=O)cc1` (configuration not stated), the AC40 is 9.73 µM.

On to `COc1ccc(S(=O)(=O)Nc2ccc3c(c2)C(=O)N([C@@H](C)CO)C[C@H](C)[C@H](CN(C)C(=O)Nc2ccccc2)OCCCC[C@@H](C)O3)cc1`, for which the AC40 was 29.6 µM.

On to `CN1c2ccc(-c3ccccc3)cc2[C@H]2[C@H](CCN2S(=O)(=O)c2ccccc2F)[C@H]1CO`, for which the AC40 is 3.63 µM.

As to `O=C(c1ccc(F)cc1)N1C[C@H]2[C@@H](c3ccccc31)[C@@H](CO)N2C(=O)c1ccccc1`, the AC40 is 17.6 µM.

As for `Cc1ccc(S(=O)(=O)NC23CC4CC(CC(C4)C2)C3)cc1`, the AC40 is 2.15 µM.

As for `Cc1nc2cc(NS(=O)(=O)c3c(C)c(C)cc(C)c3C)ccc2s1`, the AC40 was under 0.26 µM.

As to `COC(=O)c1ccc(C)c(NS(=O)(=O)c2ccc(OC)c(OC)c2)c1`, the AC40 was 21.5 µM.

`Cc1cc(S(=O)(=O)NC2CCCCC2)c(C)s1`: the AC40 is 1.44 µM.

`COc1ccc(S(=O)(=O)NC2CCCCC2)cc1C`: the AC40 was 3.14 µM.

On to `COc1ccc(OC)c(S(=O)(=O)N2CCC3(CC2)OCCN3S(=O)(=O)c2cccs2)c1`, for which the AC40 is 15.7 µM.

With `O=C(OCCN=C1NS(=O)(=O)c2ccccc21)c1ccccc1`, the AC40 was 9.59 µM.

Regarding `COc1cc(C)c(C(C)C)cc1S(=O)(=O)n1cnc(C)c1`, the AC40 is 2.65 µM.

For the compound `O=S(=O)(c1ccccc1)N(CC(O)COc1ccccc1)c1ccccc1` (configuration not stated), the AC40 was 18.9 µM.

Consider `COc1ccccc1NS(=O)(=O)c1cc(NC(=O)CCC2CCCC2)ccc1N1CCOCC1`, for which the AC40 was 1.45 µM.

With `O=C(CN1c2ccccc2Sc2ccccc21)NNC(=O)Nc1cccc(Cl)c1`, the AC40 was 17.1 µM.

Regarding `O=C(Cc1cccc2ccccc12)Nc1ccc(OC(F)F)c(Cl)c1`, the AC40 was 4.28 µM.

For the compound `COc1ccc(N(CC(=O)Nc2cc(C)on2)S(=O)(=O)c2cc(C)ccc2C)cc1`, the AC40 was 5.67 µM.

As for `COc1cc(S(=O)(=O)NC2CCCCC2)ccc1Cl`, the AC40 is 2.18 µM.

`COc1ccc(N(C(=O)c2ccncc2)S(=O)(=O)c2ccc3c4c(cccc24)C(=O)N3C)cc1`: the AC40 is 7.01 µM.

`CC(=O)N1CCCc2cc(S(=O)(=O)Nc3ccc4c(c3)OCO4)ccc21`: the AC40 was 6.16 µM.

On to `CCN1C(=O)c2cccc3c(S(=O)(=O)NCCc4c[nH]c5ccccc45)ccc1c23`, for which the AC40 is 3.09 µM.

For `Cc1ccccc1S(=O)(=O)N1CC[C@@H]2[C@@H](CO)Nc3ccc(-c4ccc(F)cc4)cc3[C@@H]21`, the AC40 is 1 µM.

As for `C[C@@H]1CN([C@H](C)CO)C(=O)c2cc(NC(=O)c3ccncc3)ccc2O[C@@H]1CN(C)S(=O)(=O)c1ccc(Cl)cc1`, the AC40 is 1.63 µM.

With `Cc1ccc(S(=O)(=O)NC(=NCc2ccccc2)c2ccc(F)cc2)cc1`, the AC40 was 5.08 µM.

For the compound `O=C(CCc1ccc(S(=O)(=O)NCCc2ccccc2)cc1)NCc1ccc2c(c1)OCO2`, the AC40 is 8.53 µM.

Take `Cc1ccc(S(=O)(=O)Nc2cccc(-c3cn4ccsc4n3)c2)cc1`: the AC40 is 1.81 µM.

Consider `O=S(=O)(Nc1ccc2ccccc2c1)c1ccccc1`, for which the AC40 was 12.5 µM.

In the case of `Clc1ccc2[nH]cc(-c3nnnn3-c3ccc4ccccc4c3)c2c1`, the AC40 is 6.75 µM.

Regarding `O=C(CCc1ccc(S(=O)(=O)NC2CCCCC2)cc1)NCc1ccccc1`, the AC40 is 4.38 µM.

Regarding `COc1ccccc1NS(=O)(=O)c1cc(NC(=O)c2cccc(S(=O)(=O)N(C)C)c2)ccc1N1CCOCC1`, the AC40 was 0.776 µM.

`Cc1cccc(NS(=O)(=O)c2cc3c4c(c2)CCC(=O)N4CCC3)c1`: the AC40 is 1.94 µM.

For `Cc1ccc(S(=O)(=O)Nc2ccc3nc(N)sc3c2)cc1`, the AC40 is 2 µM.

Regarding `CCn1cc(S(=O)(=O)CC(=O)Nc2ccc(C)cc2)c2ccccc21`, the AC40 is 15.1 µM.

Consider `Cc1ccc2ccccc2c1C(O)c1ncc(-c2ccccc2F)[nH]1` (configuration not stated), for which the AC40 is 4.22 µM.

With `Cc1ccc(S(=O)(=O)N2CCC3(CC2)OCCN3S(=O)(=O)c2cccs2)cc1`, the AC40 was 3.63 µM.

As for `C[C@@H]1CN([C@H](C)CO)C(=O)Cc2cc(NC(=O)Nc3ccc(C(F)(F)F)cc3)ccc2O[C@@H]1CN(C)C(=O)Nc1cccc2ccccc12`, the AC40 was under 0.26 µM.

Consider `CCOc1ccccc1N(CC(=O)N1CCCCCC1)S(=O)(=O)c1ccc(C)cc1`, for which the AC40 is 1.23 µM.

`Cc1ccc(S(=O)(=O)Nc2ccccc2-c2ccccc2)cc1`: the AC40 was 12.4 µM.

On to `CCOc1cc(N2CCOCC2)c(OCC)cc1NS(=O)(=O)c1ccc(Cl)s1`, for which the AC40 is 32.9 µM.

Regarding `CCOc1cc(C)c(Cl)cc1S(=O)(=O)NCC1CCCO1` (configuration not stated), the AC40 was 1.2 µM.

Regarding `COc1ccc(S(=O)(=O)N(C)C[C@H]2Oc3ccc(N(C)C)cc3C(=O)N([C@H](C)CO)C[C@@H]2C)cc1`, the AC40 was 9.52 µM.

In the case of `C[C@H](CO)N1C[C@H](C)[C@H](CN(C)Cc2ccc(C(=O)Nc3ccccc3N)cc2)Oc2ccc(NS(=O)(=O)c3ccc(F)cc3)cc2CC1=O`, the AC40 is 7.93 µM.

`Cc1cc(C)c(S(=O)(=O)NCCn2ccc3ccccc32)c(C)c1`: the AC40 was 1.93 µM.

Consider `C[C@@H]1CN([C@@H](C)CO)C(=O)c2cccc(NC(=O)c3ccc(-c4nccs4)cc3)c2O[C@@H]1CN(C)Cc1ccc(C(=O)Nc2ccccc2N)cc1`, for which the AC40 was 4.9 µM.

On to `O=C(N/N=C/c1cccs1)C(O)c1ccccc1` (configuration not stated), for which the AC40 was 15.2 µM.

With `COc1ccc(-c2cc(C)no2)cc1S(=O)(=O)NCC(C)c1ccccc1` (configuration not stated), the AC40 was 2.74 µM.

Regarding `Cc1ccccc1OCC(=O)NNC(=O)Nc1ccc(Cl)cc1`, the AC40 is 17.4 µM.

For `CSc1ccc(S(=O)(=O)Nc2ccc(F)cc2)cc1`, the AC40 was 5.15 µM.

Take `COc1ccc(S(=O)(=O)N(C)C[C@H]2Oc3ccc(NC(=O)Cc4ccccc4)cc3C(=O)N([C@H](C)CO)C[C@H]2C)cc1`: the AC40 was 2.75 µM.

With `Cc1cc(C)cc(NS(=O)(=O)c2ccc(NC(=S)NC(=O)c3ccc(Br)o3)cc2)c1`, the AC40 was 0.769 µM.

Consider `Cc1ccc(S(=O)(=O)c2cccc(S(=O)(=O)N3CCCC3)c2)cc1S(=O)(=O)N1CCCC1`, for which the AC40 was 9.91 µM.

`Cc1cccc(-c2nn(-c3ccccc3)cc2C(=O)Nc2cccc(S(=O)(=O)NC3=NCCC3)c2)c1`: the AC40 is 18.3 µM.

As to `CSc1ccc(S(=O)(=O)NC2CCCCCC2)cc1`, the AC40 is 1.72 µM.

Turning to `O=C(NC1CCCC1)C(c1ccccc1)N(Cc1ccc2c(c1)OCO2)C(=O)Cc1cccs1` (configuration not stated), the AC40 was 6.85 µM.

Turning to `COc1ccccc1NC(=S)NCC1CCCCC1`, the AC40 was 8.17 µM.

For `C[C@H](CO)N1C[C@H](C)[C@@H](CN(C)Cc2cncnc2)Oc2cc(C#CC3CCCC3)ccc2S1(=O)=O`, the AC40 was 0.805 µM.

Turning to `O=S(=O)(NCC1CCCO1)c1cccc(C(F)(F)F)c1` (configuration not stated), the AC40 was 22.2 µM.

Turning to `Cc1csc2c(=O)sc(NC(=O)c3ccco3)nc12`, the AC40 is 14.5 µM.

On to `COc1ccc(NC(=O)C2CCC2)cc1S(=O)(=O)Nc1cc(C)ccc1Br`, for which the AC40 was 0.985 µM.

Take `COc1ccccc1NS(=O)(=O)c1cc(NC(=O)c2cccs2)ccc1N1CCOCC1`: the AC40 was 0.895 µM.

For the compound `C[C@H](CO)N1C[C@H](C)[C@@H](CN(C)Cc2ccc(C(=O)Nc3ccccc3N)cc2)Oc2ccc(N(C)C)cc2CC1=O`, the AC40 was 11.3 µM.

Consider `COc1ccc(NS(=O)(=O)c2cc(NC(=O)c3ccc(=O)[nH]c3)ccc2N2CCCC2)cc1`, for which the AC40 was 0.424 µM.

In the case of `COc1ccc(S(=O)(=O)Nc2ccc(F)cc2)c(C)c1C`, the AC40 is 0.922 µM.

Regarding `Cc1ccc(NC(=S)NCc2ccc(F)cc2)cc1`, the AC40 is 20.3 µM.

As for `C[C@H](CO)N1C[C@H](C)[C@H](CN(C)Cc2ccc(C(=O)Nc3ccccc3N)cc2)Oc2ccc(NC(=O)Nc3ccc4c(c3)OCO4)cc2CC1=O`, the AC40 is 8.06 µM.

`C[C@H](CO)N1C[C@H](C)[C@@H](CN(C)Cc2ccc(Cl)c(Cl)c2)Oc2c(NS(=O)(=O)c3ccccc3)cccc2C1=O`: the AC40 is 2.54 µM.

For `CCOc1ccc(S(=O)(=O)Nc2cccc(Cl)c2)cc1`, the AC40 is 3.84 µM.

With `COc1ccccc1N/C(=N/S(=O)(=O)c1ccc(C)cc1)c1ccccc1`, the AC40 is 9.99 µM.

For `C/C(=N\NC(=O)c1ccccc1O)C1C(=O)c2ccccc2C1=O`, the AC40 is 18.1 µM.

For the compound `Cc1cc(C(=O)Nc2cccc3c2O[C@@H](CN(C)CC2CCCCC2)[C@@H](C)CN([C@@H](C)CO)C3=O)n(C)n1`, the AC40 was 5.85 µM.

Take `C[C@H](CO)N1C[C@H](C)[C@H](CN(C)Cc2ccc(C(=O)Nc3ccccc3N)cc2)Oc2ccc(NS(=O)(=O)c3cn(C)cn3)cc2CC1=O`: the AC40 was 27 µM.

`CCOc1cc(S(=O)(=O)NCCc2ccccc2C)c(OCC)cc1-n1cnnn1`: the AC40 is 2.52 µM.

With `O=S(Cc1ccccc1)CC(O)(c1ccc(Cl)cc1)c1ccc(Cl)cc1` (configuration not stated), the AC40 is 10.5 µM.

On to `COc1cc(S(=O)(=O)NC2CCCC2)c(OC)cc1C`, for which the AC40 was 3.17 µM.

As to `CCOc1cc(S(=O)(=O)Nc2cc(C)cc(C)c2)ccc1Cl`, the AC40 was 1.99 µM.

For the compound `COc1ccc(NS(=O)(=O)c2cc3c(cc2C)N(C)CCO3)cc1`, the AC40 is 2.04 µM.

On to `Cc1ccc(C(C)C)cc1S(=O)(=O)NCc1ccccn1`, for which the AC40 was 1.38 µM.

Turning to `COc1ccccc1C(=O)Nc1ccc2c(c1)C(=O)N(C)[C@H]1CC[C@H](CC(=O)NCc3ccc(Cl)c(Cl)c3)O[C@H]1CO2`, the AC40 was 0.333 µM.

As to `COc1ccc(NS(=O)(=O)c2cccc(Cl)c2)cc1S(=O)(=O)N1CCCCC1`, the AC40 was 4.35 µM.
